{
  "source": "patent US7655216B2",
  "about": "“Vaccine for activating helper function of CD8+ Tcells” (University of Pittsburgh - Of the Commonwealth of Higher …, priority 2007, dated 2010)",
  "key": {"[1]": {"test_system": "immature DCs co-cultured with effector-type CD8+ T cells", "format": "cell-based, human"}, "[2]": {"test_system": "SEB loaded DCs", "format": "cell-based, human"}, "[3]": {"test_system": "SEB-loaded DCs co-cultured with memory-type CD8+ T cells", "format": "cell-based, human"}, "[4]": {"test_system": "PI-9 in DCs", "experiment": "Intracellular PI-9 expression in DCs (flow cytometry)", "format": "cell-based, human", "experimental": "Flow cytometry. Cell surface phenotype was analyzed by flow cytometry using Beckman Coulter XL. The FITC and PE-labeled isotype controls (mouse IgG1 and IgG2a), anti-human CD86, anti-human perforin were obtained from BD Pharmingen. CD83 monoclonal antibody was purchased from Immunotech and PE-labeled Granzyme B antibody was obtained from Cell Sciences. Goat anti-mouse IgG-FITC conjugated was obtained from Caltag Laboratories. For detection of intracellular PI-9, PI-9 specific mouse monoclonal IgG1 antibody was used as described (Bladergroen et al., J. Immunol. 166:3218-3225 (2001)). Briefly, for intracellular staining of PI-9, DCs were washed and then blocked with human Ig for 10 minutes at room temperature. Subsequently, cells were permeabilized with 300 μl of Permiflow (Invirion, Frankfort, Mich.) for 60 minutes at room temperature and then washed. The cells were stained with unconjugated anti human PI-9 antibody for 20 minutes at room temperature followed by staining with FITC conjugated goat anti-mouse IgG antibody. Granzyme B and perforin staining were performed according to manufacturer's protocol, using Permiflow as permeabilization reagent. […]\nIntracellular expression of PI-9 (open profiles) in DCs has been analyzed by flow cytometry before and after (15 and 120 minutes) the exposure to recombinant TNFα (50 ng/ml)."}, "[5]": {"test_system": "MC38 adenocarcinoma", "design": "species or system C57BL/6 mice", "details": "mouse, in vivo, sc"}},
  "note": "“Also recorded” adds a separate entry of the source. The star is where a group is joined. Cbz = O=C(OCc1ccccc1)*; CH2F = FC*",
  "data": [
    {"molecule": "O=C(O)CN(CCOCCOCCN(CC(=O)O)CC(=O)O)CC(=O)O", "note": "[EGTA]", "values": [
      {"measurement": "DC killing by effector-type CD8+ T cells", "setting": "[1]", "result": "completely eliminated"}
    ]},
    {"molecule": "Cbz-IETD-CH2F", "values": [
      {"measurement": "CTL-induced DC death (survival of DCs)", "setting": "[1]", "result": "abrogated the CTL-induced DC death"}
    ]},
    {"molecule": "Concanamycin A", "values": [
      {"measurement": "DC activation / phenotypic maturation (CD86, CD83)", "setting": "[2]", "result": "enhance DC activation"},
      {"measurement": "DC killing by effector-type CD8+ T cells", "setting": "[1]", "result": "completely eliminated; also recorded: abrogated their DC-killing ability"}
    ]},
    {"molecule": "IETD-CHO", "values": [
      {"measurement": "CTL-induced DC death (survival of DCs)", "setting": "[1]", "result": "abrogated the CTL-induced DC death"}
    ]},
    {"molecule": "Infliximab", "values": [
      {"measurement": "DC survival in co-culture with memory-type CD8+ T cells", "setting": "[3]", "result": "equally effective in converting the memory T cell-induced DC activation into memory T cell-induced DC death; also recorded: reduces DC survival"},
      {"measurement": "memory-type CD8+ T cell-induced induction of PI-9 in DCs", "setting": "[4]; 10 hour time point", "result": "blocks"}
    ]},
    {"molecule": "KAVYNFATC [LCMVgp33-41]", "values": [
      {"measurement": "induction of MC38-specific CTL activity (killing MC38)", "setting": "[5]", "result": "more effective in killing MC38 than a DC vaccine loaded only with tumor antigen"}
    ]},
    {"molecule": "SIINFEKL [OVA257-264]", "values": [
      {"measurement": "induction of MC38-specific CTL activity (killing MC38)", "setting": "[5]", "result": "more effective in killing MC38 than a DC vaccine loaded only with tumor antigen"}
    ]},
    {"molecule": "TNFα", "values": [
      {"measurement": "resistance of immature DCs to CTL killing", "setting": "[1]", "result": "acquired resistance to CTL killing"},
      {"measurement": "induction of PI-9 in DCs", "setting": "[4]; recombinant TNFα 50 ng/ml, 15 and 120 minutes", "result": "Rapid induction of PI-9"}
    ]},
    {"molecule": "soluble TNF receptor I: recombinant human soluble TNF-RI (R&D Systems) (protein, UniProt P19438 30-211, looked up, extracellular domain) extracellular domain: LVPHLGDREKRDSVCPQGKYIHPQNNSICCTKCHKGTYLYNDCPGPGQDTDCRECESGSFTASENHLRHCLSCSKCRKEMGQVEISSCTVDRDTVCGCRKNQYRHYWSENLFQCFNCSLCLNGTVHLSCQEKQNTVCTCHAGFFLRENECVSCSNCKKSLECTKLCLPQIENVKGTEDSGTT", "values": [
      {"measurement": "DC survival in co-culture with memory-type CD8+ T cells", "setting": "[3]", "result": "equally effective in converting the memory T cell-induced DC activation into memory T cell-induced DC death"}
    ]}
  ]
}
